Results taken from patent publication US9657059B2, “Immune system modulators” (Canimguide Therapeutics AB, priority 2013, dated 2017).

Legend:
[1] = test system: Artificial Cell Surface (ACS): biotinylated cell surface proteins of PBMCs; assay: Adsorption of enzyme-fragmented dHSA peptides by artificial cell surface (ACS) column, MALDI-TOF; type: binding, human
Experimental: An artificial cell surface (ACS) was prepared by selectively biotinylating cell surface structures of PBMCs and after lysing the cells binding the biotinylated proteins to streptavidin columns (see Example 17 for further description of the ACS). The mixture of peptides obtained after trypsination was adsorbed by ACS and the binding peptides were identified by comparing adsorbed and unabsorbed peptide solutions using the MALDI TOF ms technique. Based on their degree of binding and their spatial relation to previously identified immunoregulatory structures, four new peptides were selected to be synthesized and investigated for their immunoregulatory activity, primarily the effect on the proliferative response to IL-2.
First, biotinylated cell surface proteins were prepared. Buffy coats generated from 450 ml blood each were collected from 4 healthy donors. Erythrocytes were removed by sedimentation on 2% dextran T500 solution (Amersham Pharmacia Biotech AB, Uppsala Sweden) in 0.9% NaCl. Mononuclear cells (PBMC) were then isolated by Ficoll-Paque Plus (GE Healthcare BioscienceAB Sweden) density gradient centrifugation. The PBMCs were then suspended in phosphate buffered saline (PBS) containing Ca and Mg (GIBCO) at a concentration of 10×10^6/ml. EZ Link Sulfo-NHS-biotin (Pierce USA) was added at a final concentration of 0.2 mg/ml and the mixture incubated on a shaker at room temperature for 10 min. Excess biotin was then removed by washing the PBMC in PBS. Biotinylated PBMC were then lysed by adding 1.0 ml ice-cold lysing buffer (50 mM Tris-HCL, pH 7.5, with 0.15 MNaCl, 5 mM MgCl2 containing 100 mM Octyl glucoside and 1 mM Phenylmethylsulfonyl fluoride) per 2×10^7 pelleted cells with gentle shaking, then incubated for 30 min. on ice. Debris was removed by centrifugation at 5000×g at 4° C. for 10 min and the supernatants were collected and pooled from all four donors. The lysate was then stored at −70° C. in polypropylene plastic tubes.
This amount of lysate corresponds to 36×10^7 mononuclear cells. It was added to a 1 ml Hitrap Streptavidin HP affinity column (Amersham Biosciences). To block possible remaining free biotin, 5 ml of 0.1 M glycine (Sigma) was added to the column. Unsaturated streptavidin on the column was then reacted with 150 ug biotin (Sigma) in binding buffer. The column was carefully washed with PBS and stored in PBS with 0.1% NaN3 at 4° C. until use.
27 ml biotinylated cell lysate in binding buffer (corresponding to 54×10^7 mononuclear cells) was added to 1.5 ml washed Streptavidin Sepharose HP (Amersham Biosciences). To block possible remaining free biotin, 25 ml of 0.1 M glycine (Sigma) was added to the Streptavidin Sepharose. Unsaturated streptavidin was then reacted with 225 ug biotin (Sigma) in binding buffer. The Streptavidin Sepharose was carefully washed in PBS. One ml of the biotinylated cell lysate coupled Streptavidin Sepharose was then packed in an empty column (Tricorn Empty High Performance Column, Amersham Bioscience) and washed with phosphate buffered saline (PBS) containing Ca^2+ and Mg^2+ (GIBCO).
Digestion with trypsin or ASP-N was performed as follows. Freeze dried dHSA (0.5 mg) was reconstituted in 25 mM NH4HCO3, pH 8, containing […] sequencing grade modified trypsin (Promega Corporation, WI) or […] Endoproteinase ASP-N(Sigma) and incubated at 37° C. overnight. To remove unfragmented albumin and enzyme, the sample was ultra filtered through an Amicon Ultra 4 (mw cut-off of 5000) or a Centriplus (mw cut-off 10000) centrifugal filter (Millipore AB, Solna, Sweden). The filtrate, containing fragmented dHSA without enzymes, was collected and diluted with PBS with Ca and Mg (GIBCO).
dHSA was trypsinated, and the mixture of peptides obtained after trypsination was adsorbed by ACS. Two ml of enzyme-fragmented dHSA in PBS, corresponding to a total of 0.2 mg protein, was passaged over the ACS column. […]

immune cells = assay: Binding of albumin fragments to immune cells on the Artificial Cell Surface column (ACS), MALDI-TOF; parameters: species or system human
Experimental: The existence of albumin sequences having neo-structures that bind to immune cells was identified using a human ex vivo model based on affinity chromatography over an “Artificial Cell Surface Column” (ACS). The effect of different albumin fragments on IL-2 induced proliferation of human immune cells (PBMCs) was analyzed in the ACS system (see Example 9). Briefly, PBMCs were cultured for seven days in the presence of IL-2 and the various synthetically prepared albumin fragments. Proliferation was measured as incorporation of ^3H thymidine during the final 18 hours.
Some of these fragments can have immunomodulatory activity similar to P3028, can bind to immune cells similar to P3028, and/or can bind to immunomodulatory antibodies that recognized P3028. […] Table 1 provides a listing of trypsin-generated fragments of albumin, which bind to immune cells in the ACS system, as detected by MALDI-TOF analysis.
[…] Again, the immune cell binding peptides were identified by comparing adsorbed and unadsorbed peptide solutions using the MALDI TOF technique.

[2] = trypsin-generated albumin fragments
[3] = trypsin-generated albumin fragments, MALDI-TOF
[4] = Asp-N-generated albumin fragments
[5] = Asp-N-generated fragments of denatured human serum albumin, MALDI TOF

Substance | Percent Absorbed [1, 2] | Percent Absorbed (immune cells; [3]) | Percent Absorbed [1, 4] | Percent Absorbed (immune cells; [5])
194 (KYLYEIAR; listed as Homo sapiens) [compound 194] | 71% | 71% | – | –
195 (KVPQVSTPTLVEVSR; listed as Homo sapiens) [compound 195] | 64% | 64% | – | –
196 (VFDEFKPLVEEPQNLIK; listed as Homo sapiens) [compound 196] | 60% | 60% | – | –
197 (VPQVSTPTLVEVSR; listed as Homo sapiens) [compound 197] | 59% | 59% | – | –
198 (RPCFSALEVDETYVPK; listed as Homo sapiens) [compound 198] | 42% | 42% | – | –
199 (FQNALLVR; listed as Homo sapiens) [compound 199] | 41% | 41% | – | –
200 (SLHTLFGDK; listed as Homo sapiens) [compound 200] | 36% | 36% | – | –
201 (LKECCEKPLLEK; listed as Homo sapiens) [compound 201] | 36% | 36% | – | –
202 (LCTVATLR; listed as Homo sapiens) [compound 202] | 35% | 35% | – | –
203 (YLYEIAR; listed as Homo sapiens) [compound 203] | 34% | 34% | – | –
204 (CCAAADPHECYAK; listed as Homo sapiens) [compound 204] | 32% | 32% | – | –
205 (AAFTECCQAADK; listed as Homo sapiens) [compound 205] | 29% | 29% | – | –
206 (CCTESLVNR; listed as Homo sapiens) [compound 206] | 26% | 26% | – | –
207 (QEPERNECFLQHK; listed as Homo sapiens) [compound 207] | 25% | 25% | – | –
208 (AVMDDFAAFVEK; listed as Homo sapiens) [compound 208] | 23% | 23% | – | –
209 (NECFLQHK; listed as Homo sapiens) [compound 209] | 77% | 22% | – | –
210 (QNCELFEQLGEYK; listed as Homo sapiens) [compound 210] | 20% | 20% | – | –
211 (QEPERNECFLQHK; listed as Homo sapiens) [compound 211] | 18% | 18% | – | –
212 (VHTECCHGDLLECADDR; listed as Homo sapiens) [compound 212] | 13% | 13% | – | –

Substance | Percent Absorbed [1, 2] | Percent Absorbed (immune cells; [3]) | Percent Absorbed [1, 4] | Percent Absorbed (immune cells; [5])
213 (FKDLGEENFK; listed as Homo sapiens) [compound 213] | 8% | 8% | – | –
214 (YICENQDSISSK; listed as Homo sapiens) [compound 214] | 3% | 3% | – | –
215 (LDELRDEGK; listed as Homo sapiens) [compound 215] | 2% | 2% | – | –
216 (DDNPNLPR; listed as Homo sapiens) [compound 216] | 1% | 1% | – | –
217 (DHVKLVNEVTEFAKTCVA; listed as Homo sapiens) [compound 217] | – | – | 100% | 100%
218 (DDKETCFAEEGKKLVAASQAALGL; listed as Homo sapiens) [compound 218] | – | – | 100% | 100%
219 (DRVTKCCTESLVNRRPCFSALEV; listed as Homo sapiens) [compound 219] | – | – | 87% | 87%
220 (DETYVPKEFNAETFTHA; listed as Homo sapiens) [compound 220] | – | – | 86% | 86%
221 (DSISSKLKECCEKPLLEKSHCIAEVEN; listed as Homo sapiens) [compound 221] | – | – | 65% | 65%
222 (DKLCTVATLRETYGEM; listed as Homo sapiens) [compound 222] | – | – | 65% | 65%
223 (YSVVLLLRLAKTYETTLEKCCAAADPHECYAKVF; listed as Homo sapiens) [compound 223] | – | – | 100% | 100%
224 (KLCTVATLRETYGEMADCCAKQEPERNECFLQHK; listed as Homo sapiens) [compound 224] | – | – | 100% | 100%
225 (ICTLSEKERQIKKQTALVELVKHKPKATKEQLKAVM; listed as Homo sapiens) [compound 225] | – | – | 100% | 100%
226 (LAKYICENQDSISSKLKECCEKPLLEKHCIAEVEN; listed as Homo sapiens) [compound 226] | – | – | 100% | 100%
227 (VFLGMFLYEYARRHPDYSVVLLLRLAKTYETTLEKCCAAA; listed as Homo sapiens) [compound 227] | – | – | 100% | 100%
228 (LGEENFKALVLIAFAQYLQQCPFEDHVKLVNEVTEFAKTCVA; listed as Homo sapiens) [compound 228] | – | – | 100% | 100%
229 (RVTKCCTESLVNRRPCFSALEVDETYVPKEFNAETFTFHA; listed as Homo sapiens) [compound 229] | – | – | 100% | 100%
230 (YLSVVLNQLCVLHEKTPVSDRVTKCCCTESLVNRRPFSALEV; listed as Homo sapiens) [compound 230] | – | – | 37% | 37%
